Measured values reported in patent US20210284691A1, “CBX8 CHROMDOMAIN INHIBITORS AND THE USES THEREOF” (Purdue Research Foundation, priority 2019, published 2021).
Read-outs that look alike come from different tables or passages of the source. Square brackets hold non-standard residues; d marks the D form. Peptide text beside a SMILES is read from it. * marks the point of attachment. ξ: configuration not given here. Isoxazole3carbonyl(5-Me) = Cc1cc(C(=O)*)no1; Tyr(3-Cl) = N[C@@H](Cc1ccc(O)c(Cl)c1)C(=O)O; Benzoyl(4-OPh) = O=C(c1ccc(Oc2ccccc2)cc1)*; Benzoyl(4-Ph) = O=C(c1ccc(-c2ccccc2)cc1)*; Lys(Me3) = C[N+](C)(C)CCCC[C@H](N)C(=O)O; Gly(3-thienyl) = N[C@H](C(=O)O)c1ccsc1; Lys(Et2) = CCN(CC)CCCC[C@H](N)C(=O)O; Gly(cPent) = N[C@H](C(=O)O)C1CCCC1; Gly(cPr) = N[C@H](C(=O)O)C1CC1; ξIle = CC[C@H](C)C(N)C(=O)O; NH(propargyl) = C#CCN*

Experiments:
[1] = test system: H3K27me3, AR, ENO2, N-Myc, CBX2 protein levels; experiment: Western blotting of protein expression in VCaP_NED cells; type: cell-based
Source text: FIG. 12A). Neuroendocrine differentiation (NED) of prostate cancer induced by androgen deprivation. Representative pictures of LNCaP cells treated with normal media or charcoal-stripped serum (CSS) media for 6 days to induce neuroendocrine differentiation (LNCaP_NED). FIG. 12B). Transcriptional fold changes of KLK3/TMPRSS2/ENO2/CHGA were quantified normalized to control gene YWHAZ upon CSS media treatment for 6 or 9 days. FIG. 12C). Western blotting of CBX paralogs in LNCaP and LNCaP_NED cells generated from 14-day CSS treatment. FIG. 12D). Cell proliferation of LNCaP_NED following 5 days incubation with 2 or 10 μM SW2_152F. DMSO was used as negative control. FIG. 12E). LNCaP_NED cells were treated with 10 μM SW2_152F for 24 h-96 h. Cell morphology pictures were captured starting from 24 h. Average cell size were plotted at 24 h or 48 h for both DMSO group and compound treated group. FIG. 12F). LNCaP_NED cells were treated with 10 μM or 50 μM SW2_152F for 48 hours. Transcriptional fold change of genes (KLK3/TMPRSS2/AR/CBX2) were normalized to YWHAZ in LNCaP_NED cells with SW2_152F treatment or DMSO. FIG. 12G). LNCaP cells were treated with DMSO. LNCaP_NED cells were treated with DMSO, 10 μM GSK343 or 10 μM SW2_152F for 48 hours. Whole cell lysates were extracted for western blotting. FIG. 12H). LNCaP_NED cells were treated with DMSO or 10 μM SW2_152F for 4 hours before harvest. Binding of H3K27me3 and CBX2 at specific genomic sites (KLK3/TMPRSS2, e: enhancer, p: promoter) were evaluated using chromatin immunoprecipitation-qPCR. For all experiments in the figure, error bars represent SEM n=3 biological replicates, p-values were calculated using two-tailed Student's t-test, *=p<0.05, **=p<0.01, ***=p<0.001, ****=p<0.0001.
In another androgen-sensitive prostate cancer cell line, VCaP, 6 days of androgen deprivation decreases AR protein expression and increases ENO2, N-Myc, H3K27me3 and CBX2 protein expression (FIG. 12G), similar to published findings (Y. Zhang, et al., 2018). Using this NED cell line (VCaP_NED), we tested how addition of EZH2 inhibitor GSK343 or CBX2 inhibitor SW2_152F affects protein expression changes during NED.

CBX6 ChD = target: T1, CBX6 ChD (Homo sapiens, UniProt O95503); experiment: Competitive fluorescence polarization (FP) assay; type: binding; details: average of quadruplicates ± s.d.
T1 construct: CBX chromodomain constructs; host or cells: E. coli BL21 CodonPlus RIL
T1 sequence (O95503 11-69 limits assumed): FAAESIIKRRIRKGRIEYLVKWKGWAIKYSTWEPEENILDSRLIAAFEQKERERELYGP
Experimental: (§1) CBX chromodomain constructs (addgene plasmid #25158 (CBX2), #25237 (CBX4), #25296 (CBX6), #25241 (CBX7) and #62514 (CBX8, provided by Cheryl Arrowsmith), Kaustov et al.) were transformed into chemically competent BL21 CodonPlus RIL E. coli cells (Stratagene, La Jolla, Calif.) as N-terminal His6-tagged proteins. Bacterial growth was completed at 37° C. in LB media to OD600=2.0, followed by reducing the temperature to 16° C. over 30-60 min and induced with 1 mM IPTG for 16 h. Cells were collected by centrifugation at 6000 rpm for 20 min and resuspended in ChD binding buffer (20 mM Tris, pH 8, 150 mM NaCl, 0.01% Tween-20, 20 mM imidazole) with 1.0 mM PMSF. Bacteria pellets were stored at −80° C. until needed. Pellets were thawed on ice for 10 min in ChD binding buffer, and shaked at 4° C. supplemented with 100 μg/mL lysozyme, 1 mg/mL CHAPS and 1 mM PMSF, for 30 min. Cells were subsequently lysed by sonication (15 W, 30 s on, followed by 30 s off, twice, followed by 20 W for 1 min). The solubilized fraction was collected by centrifugation at 15000 rpm for 40 min at 4° C. Meanwhile, Ni-NTA Agarose resin (QIAGEN, Venlo, Netherlands) was washed with H2O and equilibrated with ChD binding buffer. The soluble fraction was incubated with the prewashed Ni-NTA agarose resin at 4° C. for 2 h. The resin was then washed 3× with ChD purification buffer (20 mM Tris, pH 8, 150 mM NaCl, 0.01% Tween-20, 1 mM PMSF). Proteins were eluted by the addition of 0.5 M imidazole to ChD purification buffer. The elution was diluted with 30% glycerol, flash frozen, and stored at −80° C. until needed. Protein purity was assessed by SDS-PAGE and concentration was determined by the Pierce 660 kit (Thermo Scientific).
(§2) Competitive Fluorescence polarization (FP) assay of PSL hits against CBX6 ChD, CBX7 ChD and CBX8 ChD. FP was measured by titration of CBX ChDs to a FITC-labelled probe as previously reported (Simhadri et al.). Binding and competition FP assays were performed in black 384-well plates with optical bottoms. The protein concentrations used were selected based on the reported relative affinity of the CBX ChD protein for the FITC probes. The FITC-labeled probe was kept constant at 100 nM with 1 μM CBX6, 0.4 μM CBX7 or 4 μM CBX8 with varying amounts of peptide by 2-fold series dilutions, from 500 μM as highest peptide concentration to 0.488 μM as the lowest. Assays were performed for each peptide in four replicates.

CBX7 ChD = target: T2, CBX7 ChD (Homo sapiens, UniProt O95931); experiment: Competitive fluorescence polarization (FP) assay; type: binding; details: average of quadruplicates ± s.d.
T2 construct: CBX chromodomain constructs; host or cells: E. coli BL21 CodonPlus RIL
T2 sequence (O95931 11-69 limits assumed): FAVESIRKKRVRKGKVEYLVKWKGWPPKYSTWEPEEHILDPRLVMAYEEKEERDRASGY
Experimental: as §1, §2

CBX8 ChD [2] = target: T3, CBX8 ChD (Homo sapiens, UniProt Q9HC52); experiment: Competitive fluorescence polarization (FP) assay; type: binding
T3 construct: CBX chromodomain constructs; host or cells: E. coli BL21 CodonPlus RIL
T3 sequence (Q9HC52 11-69 limits assumed): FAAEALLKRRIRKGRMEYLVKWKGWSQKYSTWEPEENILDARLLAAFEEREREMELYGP
Experimental: as §1, §2

CBX8 ChD [3] = target: T3, CBX8 ChD; experiment: Direct fluorescence polarization (FP) binding assay
Experimental: as §1, with “Bacterial” for “CBX chromodomain constructs (addgene plasmid #25158 (CBX2), #25237 (CBX4), #25296 (CBX6), #25241 (CBX7) and #62514 (CBX8, provided by Cheryl Arrowsmith), Kaustov et al.) were transformed into chemically competent BL21 CodonPlus RIL E. coli cells (Stratagene, La Jolla, Calif.) as N-terminal His6-tagged proteins. Bacterial”
Direct fluorescence polarization (FP) binding assay of PSL hits against PcG CBX ChDs. FP assays were conducted as above with slight modifications. Alkyne peptides described above were conjugated with a fluorescein group(5-/6-FAM) through copper catalyzed click reaction as previously described. The FAM-labeled peptide was kept constant at 100 nM. The CBX ChD proteins were titrated by 2-fold series dilutions in the assays. The highest protein concentrations, at which FAM-peptide was completely bound, used for each CBX in the direct binding assays depends on the binding affinity of the peptides. Assays were performed for each peptide in four replicates.

[4] = competitive FP, average of quadruplicates ± s.d., read-out: IC50 (μM) CBX8

Experimental for THP1 cells: Cells were grown for 72 h before trypsinized and counted. Cell suspension was homogenized by gentle pipetting and counted using Countess II (#AMQAF1000, Life Technologies). […] At day 6, 25 percent of cells in each well were split and transferred to new wells to avoid over-confluency, and media was replaced with fresh compounds in new media. The cell viability assay was extended to 12 days, with cell counting and fresh compound replenishment at day 3, 6, 9.
Luminescence was normalized to DMSO-treated groups. The IC50 was calculated using the “log[inhibitor] vs. the normalized response-variable slope” equation in GraphPad Prism 7.

With `CCCc1cc(C)[nH]c(=O)c1CNC(=O)c1cc(-c2ccnc(N3CCN(C)CC3)c2)cc2c1cnn2C(C)C` [GSK343] as the molecule, how does the CBX2 protein expression [1] read?
The CBX2 protein expression was “decrease in CBX2 expression”.

And the H3K27me3 levels ([1]; 10 μM, 48 hours)?
The H3K27me3 levels was “reduces H3K27me3 levels”.

What about the “AR, ENO2 and N-Myc expression” value ([1]; compared to DMSO) of the same molecule?
The value was “increase AR and decrease ENO2 and N-Myc expression”.

For `C#CCNC(=O)[C@H](CO)NC(=O)[C@H](CCCCN(CC)CC)NC(=O)[C@@H](NC(=O)[C@@H](NC(=O)c1ccc(Oc2ccccc2)cc1)c1ccsc1)[C@@H](C)CC` [SW2-110B] ({Benzoyl(4-OPh)}-[Gly(3-thienyl)]I[Lys(Et2)]S-{NH(propargyl)}), which “IC50 (μM) CBX6” value (CBX6 ChD) is on record?
Its value is “ND (Aggreg.)”.

And the “IC50 (μM) CBX7” value (CBX7 ChD)?
Its value is “ND (Aggreg.)”.

For `CC[C@H](C)C(NC(=O)[C@@H](NC(=O)c1ccc(-c2ccccc2)cc1)C1CCCC1)C(=O)N[C@@H](CCCC[N+](C)(C)C)C(=O)N[C@@H](CO)C(N)=O` (stereo partly drawn) [SW2_89] ({Benzoyl(4-Ph)}-[Gly(cPent)][ξIle][Lys(Me3)]S-NH2), which “IC50 (μM) CBX6” value (CBX6 ChD) is on record?
The value was “ND (Aggreg.)”.

Which IC50 (CBX7 ChD) does the source give for `CC[C@H](C)C(NC(=O)[C@@H](NC(=O)[C@H](Cc1ccc(O)c(Cl)c1)NC(=O)c1cc(C)on1)C1CC1)C(=O)N[C@@H](CCCC[N+](C)(C)C)C(=O)N[C@@H](CO)C(N)=O` (stereo partly drawn) [SW2_90] ({Isoxazole3carbonyl(5-Me)}-[Tyr(3-Cl)][Gly(cPr)][ξIle][Lys(Me3)]S-NH2) here?
Its IC50 is 0.82 ± 0.12 µM.

With `CC[C@H](C)C(NC(=O)[C@@H](NC(=O)c1ccc(-c2ccccc2)cc1)C1CC1)C(=O)N[C@@H](CCCC[N+](C)(C)C)C(=O)N[C@@H](CO)C(N)=O` (stereo partly drawn) [SW2_101A] ({Benzoyl(4-Ph)}-[Gly(cPr)][ξIle][Lys(Me3)]S-NH2) as the molecule, how does the IC50 (CBX8 ChD [2]; [4]) read?
The IC50 was 40 ± 8.3 µM.

What does the source list for `CC[C@H](C)C(NC(=O)[C@@H](NC(=O)c1ccc(Oc2ccccc2)cc1)C1CCCC1)C(=O)N[C@@H](CCCC[N+](C)(C)C)C(=O)N[C@@H](CO)C(N)=O` (stereo partly drawn) [SW2_101B] ({Benzoyl(4-OPh)}-[Gly(cPent)][ξIle][Lys(Me3)]S-NH2)?
IC50 (CBX6 ChD): > 100 µM; IC50 (CBX7 ChD): > 100 µM

With `CC[C@H](C)C(NC(=O)[C@@H](NC(=O)c1ccc(Oc2ccccc2)cc1)C1CC1)C(=O)N[C@@H](CCCC[N+](C)(C)C)C(=O)N[C@@H](CO)C(N)=O` (stereo partly drawn) [SW2_101F] ({Benzoyl(4-OPh)}-[Gly(cPr)][ξIle][Lys(Me3)]S-NH2) as the molecule, how does the IC50 (CBX6 ChD) read?
Its IC50 is over 100 µM.

What about the IC50 (CBX8 ChD [2]; [4]) of the same molecule?
Its IC50 is 4 ± 1.1 µM.

For `C#CCNC(=O)[C@H](CO)NC(=O)[C@H](CCCCN(CC)CC)NC(=O)C(NC(=O)[C@@H](NC(=O)c1ccc(-c2ccccc2)cc1)c1ccsc1)[C@@H](C)CC` (stereo partly drawn) [SW2_104B] ({Benzoyl(4-Ph)}-[Gly(3-thienyl)][ξIle][Lys(Et2)]S-{NH(propargyl)}), which “IC50 (μM) CBX6” value (CBX6 ChD) is on record?
Its value is “ND (Aggreg.)”.

What about the “IC50 (μM) CBX7” value (CBX7 ChD) of the same molecule?
Its value is “ND (Aggreg.)”.

What about the IC50 (CBX8 ChD [2]; [4]) of the same molecule?
Its IC50 is over 15 µM.

Which “selectivity for CBX8 ChD over CBX7 ChD” value (CBX8 ChD [3]; from Kd values) does the source give for `CC[C@H](C)[C@H](NC(=O)[C@@H](NC(=O)c1ccc(Oc2ccccc2)cc1)C1CCCC1)C(=O)N[C@@H](CCCCN(CC)CC)C(=O)N[C@@H](CO)C(=O)NCc1cn(CCCCNC(=O)c2ccc3c(c2)C2(OC3=O)c3ccc(O)cc3Oc3cc(O)ccc32)nn1` [SW2_110A-FL] here?
Its value is 20 fold.

What about the “selectivity for CBX8 over CBX2” value (CBX8 ChD [3]; from Kd values) of the same molecule?
The value was 5 fold.

Which results are given for `C#CCNC(=O)[C@H](CO)NC(=O)[C@H](CCCCN(CC)CC)NC(=O)C(NC(=O)[C@@H](NC(=O)c1ccc(Oc2ccccc2)cc1)C1CCCC1)[C@@H](C)CC` (stereo partly drawn) [SW2_110A] ({Benzoyl(4-OPh)}-[Gly(cPent)][ξIle][Lys(Et2)]S-{NH(propargyl)})?
IC50 (μM) CBX6 (CBX6 ChD): ND (Aggreg.); IC50 (μM) CBX7 (CBX7 ChD): ND (Aggreg.); IC50 (CBX8 ChD [2]): > 7 µM; Kd (CBX8 ChD [3]): ~800 nM; selectivity for CBX8 over all other CBX paralogs in vitro (CBX8 ChD [3]): ≥ 5 fold; inhibition of THP1 proliferation compared to DMSO (THP1 cells; 100 μM, after 12 days of treatment): ~80%; IC50 (THP1 cells; read-out: IC50 for growth inhibition of THP1 cells, 12-day treatment, CellTiter-Glo): 25 ± 1.1 µM
